Measured values published in patent US20240301319A1, “PERFUMING COMPOSITIONS” (FIRMNICH SA, priority 2017, published 2024).
Structures can show the parent of a compound that is named as a salt. Each block holds one molecule with its values, some of them ahead of it.

Experiments:
[1] = Volatility of perfuming compounds (Tables 4 to 10), with top/middle/bottom note type; type: physicochemical
Procedure, shortened: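 Volatility is expressed in μg/l in air. Top notes are 70,000 to 100 μg/l, middle notes 99 to 50 μg/l, and bottom notes 49 to 0.1 μg/l. Compounds are grouped by olfactive family: watery, green, fruity, citrus, sweet, gourmand and woody.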

[2] = Odor threshold and odor value of perfuming compounds (Tables 4 to 10)
[3] = Table 10, perfuming compounds having a woody note, note type by volatility
[4] = Table 4, watery note, top, middle or bottom note
[5] = Table 4, watery note, equals volatility divided by odor threshold
[6] = Table 6, perfuming compounds having a fruity note
[7] = Table 6, perfuming compounds having a fruity note, note type by volatility
[8] = Table 8, perfuming compounds having a sweet note
[9] = Table 8, perfuming compounds having a sweet note, note type by volatility
[10] = Table 9, perfuming compounds having a gourmand note, note type by volatility
[11] = note type (Top/Middle/Bottom) by volatility, perfuming compounds having a green note
[12] = perfuming compounds having a green note

Compound: CCC(=O)O[C@H]1C[C@@H]2CC[C@@]1(C)C2(C)C
Type [1, 3]: Top
Volatility ([1]; Table 10, woody note): 216.42 μg/l air
Odor Threshold ([2]; Table 10, woody note): 4.55E−02 μg/l air

Compound: CC(C)c1ccc2c(c1)OCC(=O)CO2 [7-ISOPROPYL-2H,4H-1,5-BENZODIOXEPIN-3-ONE]
Volatility (μg/l air) ([1]; Table 4, watery note): 56.74 μg/l air
Type [1, 4]: middle (perfuming compounds having a volatility ranging from 99 to 50 μg/l in air are referred to as “middle notes”)
Odor Threshold (μg/l air) ([2]; Table 4, watery note): 3.20E−06 μg/l air
Odor Value [2, 5]: 1.77E+07

Compound: CCCCCCCCCCCC=O [DODECANAL]
Volatility (μg/l air) ([1]; Table 4, watery note): 144.79 μg/l air
Type [1, 4]: TOP (perfuming compounds having a volatility ranging from 70,000 to 100 μg/l in air are referred to as “top notes”)
Odor Threshold (μg/l air) ([2]; Table 4, watery note): 9.90E−04 μg/l air
Odor Value [2, 5]: 1.46E+05

Compound: CC1COCc2cc3c(cc21)C(C)(C)C(C)C3(C)C (racemic)
Volatility [1, 6]: 1.59 μg/l air
Type [1, 7]: Bottom
Odor Threshold [2, 6]: 2.62E−04 μg/l air
Odor Value [2, 6]: 6.08E+03

Compound: C=CCSSCC=C [DIALLYL DISULFIDE]
Volatility [1, 8]: 5487.52 μg/l air
Type [1, 9]: Top
Volatility ([1]; Table 9, gourmand note): 5487.52 μg/l air
Type [1, 10]: Top
Odor Threshold [2, 8]: 3.98E−05 μg/l air
Odor Value [2, 8]: 1.38E+08
Odor Threshold ([2]; Table 9, gourmand note): 3.98E−05 μg/l air

Compound: CC(=O)O[C@@H]1C(C)(C)CCC[C@]12CC=C(C)C[C@H]2C (racemic)
Type [1, 3]: Bottom
Volatility ([1]; Table 10, woody note): 8.25 μg/l air
Odor Threshold ([2]; Table 10, woody note): 3.79E−03 μg/l air

Compound: CCCCCCCCCCCC#N [DODECANENITRILE]
Volatility (μg/l air) ([1]; Table 4, watery note): 56.74 μg/l air
Type [1, 4]: middle (perfuming compounds having a volatility ranging from 99 to 50 μg/l in air are referred to as “middle notes”)
Odor Threshold (μg/l air) ([2]; Table 4, watery note): 3.20E−06 μg/l air
Odor Value [2, 5]: 1.77E+07

Compound: COc1cc(C=O)ccc1OC(=O)C(C)C
Volatility [1, 6]: 1.01 μg/l air
Type [1, 7]: Bottom
Volatility [1, 8]: 1.01 μg/l air
Type [1, 9]: Bottom
Volatility ([1]; Table 9, gourmand note): 1.01 μg/l air
Type [1, 10]: Bottom
Odor Threshold [2, 6]: 7.33E−05 μg/l air
Odor Value [2, 6]: 1.38E+04
Odor Threshold [2, 8]: 7.33E−05 μg/l air
Odor Value [2, 8]: 1.38E+04
Odor Threshold ([2]; Table 9, gourmand note): 7.33E−05 μg/l air

Continued, in another order:

Volatility (μg/l air) ([1]; Table 4, watery note): 75.55 μg/l air
Compound: CCCCCCCCCC(C)C=O (racemic) [(+−)-2-methylundecanal]
Type [1, 4]: middle (perfuming compounds having a volatility ranging from 99 to 50 μg/l in air are referred to as “middle notes”)
Odor Threshold (μg/l air) ([2]; Table 4, watery note): 7.24E−05 μg/l air
Odor Value [2, 5]: 1.04E+06

Volatility [1, 6]: 9902.98 μg/l air
Volatility [1, 8]: 9902.98 μg/l air
Type [1, 9]: Top
Volatility ([1]; Table 9, gourmand note): 9902.98 μg/l air
Type [1, 10]: Top
Compound: C=C(C)CC(C)OC(=O)C(C)C (racemic)
Type [1, 7]: TOP (perfuming compounds having a volatility ranging from 70,000 to 100 μg/l in air are referred to as “top notes”)
Odor Threshold [2, 8]: 2.26E−01 μg/l air
Odor Value [2, 8]: 4.39E+04
Odor Threshold ([2]; Table 9, gourmand note): 2.26E−01 μg/l air

Volatility [1, 6]: 210.68 μg/l air
Volatility [1, 8]: 210.68 μg/l air
Type [1, 9]: Top
Volatility ([1]; Table 9, gourmand note): 210.68 μg/l air
Type [1, 10]: Top
Type [1, 11]: Top
Volatility (μg/l air) [1, 12]: 210.68 μg/l air
Compound: CC/C=C\CCOC(=O)C/C=C\CC [(3Z)-3-hexen-1-yl (3Z)-3-hexenoate]
Type [1, 7]: TOP (perfuming compounds having a volatility ranging from 70,000 to 100 μg/l in air are referred to as “top notes”)
Odor Threshold [2, 8]: 5.17E−02 μg/l air
Odor Value [2, 8]: 4.08E+03
Odor Threshold ([2]; Table 9, gourmand note): 5.17E−02 μg/l air
Odor Threshold (μg/l air) [2, 12]: 5.17E−02 μg/l air

Volatility [1, 6]: 421.09 μg/l air
Type [1, 11]: Top
Volatility (μg/l air) [1, 12]: 421.09 μg/l air
Compound: CCCC(S)CCOC(C)=O (racemic) [(+−)-3-mercaptohexyl acetate]
Type [1, 7]: TOP (perfuming compounds having a volatility ranging from 70,000 to 100 μg/l in air are referred to as “top notes”)
Odor Threshold (μg/l air) [2, 12]: 2.72E−06 μg/l air

Type [1, 11]: Top
Volatility (μg/l air) [1, 12]: 2766.10 μg/l air
Compound: CCCCSCCCC [DIBUTYL SULFIDE]
Odor Threshold (μg/l air) [2, 12]: 2.34E−02 μg/l air

Type [1, 11]: Bottom
Volatility (μg/l air) [1, 12]: 4.34 μg/l air
Compound: CC/C=C\CCOC(=O)c1ccccc1O [(3Z)-3-hexen-1-yl salicylate]
Odor Threshold (μg/l air) [2, 12]: 3.23E−04 μg/l air

Volatility [1, 6]: 2316.04 μg/l air
Type [1, 11]: Top
Volatility (μg/l air) [1, 12]: 2316.04 μg/l air
Compound: CCCCCCOC(C)=O [HEXYL ACETATE]
Type [1, 7]: TOP (perfuming compounds having a volatility ranging from 70,000 to 100 μg/l in air are referred to as “top notes”)
Odor Threshold (μg/l air) [2, 12]: 1.32E−01 μg/l air

Volatility [1, 6]: 9873.53 μg/l air
Type [1, 11]: Top
Volatility (μg/l air) [1, 12]: 9873.53 μg/l air
Compound: CC/C=C\CCOC=O [(Z)-3-HEXENYL FORMATE]
Type [1, 7]: TOP (perfuming compounds having a volatility ranging from 70,000 to 100 μg/l in air are referred to as “top notes”)
Odor Threshold (μg/l air) [2, 12]: 2.11E−03 μg/l air
